Tests used:
[1] = test system: HepG2 cells (human liver carcinoma cell line); assay: Transfection efficiency on HepG2 cells in vitro (GpLuc luminescence in supernatant); assay type: cell-based; conditions: GpLuc mRNA, 24 h (FIG. 2A)
Description: This example describes the evaluation of the effect of different polymer-lipid formulations on transfection efficiency on HepG2 cells (human liver carcinoma cell line). As a read-out for transfection efficiency, GpLuc mRNA (SEQ ID NO:14) was used as a cargo.
Successful transfection with the cargo leads to the translation of the luciferase protein and to a secretion of Gp luciferase protein into the cell culture supernatant.
A volume of 0.2 mL HepG2 cells (10.000 cells) were seeded in a 96 well tissue culture plate. After removing the medium from each well, 100 μL RPMI 1640 medium (with 1% Penicillin and 1% Streptomycin, 1% L-Glutamin) was added to each well. Afterwards, HepG2 cells were transfected with 100 μL transfection mix (in triplicates) of polymer-lipid mRNA complexes (prepared according to Example 3) and respective controls (in triplicates), and cells were incubated at 37° C. and 5% CO2 for 90 minutes. […] Twenty-four hours post transfection, 10 μL of supernatant of each well was extracted and used for further luminescence analysis (see below).
A volume of 10 μL supernatant was transferred to a 96 well plate for GpLuc measurement. […] A volume of 100 μL coelenterazine working solution was used as a substrate for GpLuc and measured after 5 seconds in a commercially available microplate reader.

Sol8 cells = assay: Transfection of Sol8 muscle cells in vitro; assay type: cell-based, Mus musculus; conditions: very small amount of lipid, in combination with low- and high-charge ratio complexes
Description: A volume of 10 μL supernatant was transferred to a 96 well plate for GpLuc measurement. Then, coelenterazine working solution (100 μM) was prepared (1 mL coelenterazine stock solution (4.72 mM in EtOH) in 49 mL phosphate buffered saline supplemented with 5 mM NaCl, pH 7.2). A volume of 100 μL coelenterazine working solution was used as a substrate for GpLuc and measured after 5 seconds in a commercially available microplate reader.
As a read-out for transfection efficiency, […] mRNA (SEQ ID:NO 15) was used as a cargo. A successful transfection with the cargo leads to the translation of the luciferase protein and to a secretion of Gp luciferase protein into the cell culture supernatant.
For a subset on hydrogel, a volume of 0.2 mL Sol8 cells (20.000 cells) were seeded in 96 well glass bottom plates (Softwell Hydrogel coated with collagen (elasticity E=12 kPa)). For another subset without hydrogel, a volume of 0.2 mL with 10.000 Sol8 cells per well were seeded in a 96 well glass bottom plates.
After removing the medium from each well, 100 μL DMEM medium (with 2% horse serum) was added to each well. […] Twenty-four hours post transfection, 10 μL of supernatant of each well was extracted and used for further luminescence analysis, which was performed as described in Example 5.

## CCCCC/C=C\C/C=C\CCCCCCCCC1(CCCCCCCC/C=C\C/C=C\CCCCC)OCC(CCN(C)C)O1 (stereo not drawn) [KC2, 2,2-dilinoleyl-4-(2-dimethylaminoethyl)[1,3]-dioxolane]
[1]; combination with polymer PB83, high-charge complexes (N/P 4), 1 and 2 nmol/μg RNA lipid
  transfection efficiency compared to PB83 polymer alone: this effect was observable

## CCCCC/C=C\C/C=C\CCCCCCCCC(CCCCCCCC/C=C\C/C=C\CCCCC)OC(=O)CCCN(C)C [MC3, (6Z,9Z,28Z,31Z)-heptatriaconta-6,9,28,31-tetraen-19-yl-4-(dimethylamino)butanoate]
[1]; combination with polymer PB83, low charge complexes (N/P 0.7), 0.4 and 1 nmol/μg RNA lipid
  transfection efficiency compared to PB83 polymer alone: increase in transfection efficiency

## CCCCCCCC/C=C\CCCCCCCC(=O)OCC(C[N+](C)(C)C)OC(=O)CCCCCCC/C=C\CCCCCCCC.[Cl-] (stereo not drawn) [N-[1-(2,3-dioleoyloxy)propyl]-N,N,N-trimethylammonium chloride]
Sol8 cells
  increase of expression levels in Sol8 cells: effective
